Reference: US20170189372A1, “USE OF SUBSTITUTED CHROMAN COMPOUNDS” (INSTYTUT BIOLOGII MEDYCZNEJ, priority 2014, published 2017)

Legend:
[1] = tested on: reporter cell line for IL-2 (EL-4 cells); assay: FCC primary screening with IL-2 reporter cells; type: cell-based, mouse; conditions: relative viability×(relative fluorescence−100); PMA and ionomycin activated, compound 0.4 μg/ml, 18 h
Protocol: (§1) Development of reporter cell lines was described previously (Ulleras, E., D. Trzaska, et al. (2005); “Development of the “Cell Chip”: a new in vitro alternative technique for immunotoxicity testing”, Toxicology 206(2): 245-56). Briefly, EL-4 cells were stably transfected with transgene consisting of promoter regions from mouse β-actin, interleukin-2 (IL-2), interleukin-4 (IL-4), interferon-γ (IFN-γ), and interleukin-10 (IL-10) and ORF for EGFP. Reporter cells were cultured at density 5×10^5-1×10^6 cells/ml in a humidified atmosphere with 5% CO2 at 37° C. in RPMI 1640 with Glutamax supplemented with 20% FCS and 0.5 μg/ml G418.
When applicable, cells and reagents handling was performed by JANUS Automated Workstation (PerkinElmer, Waltham, Mass., USA). Cells were seeded at a density of 5×10^4 per well in 96-well plates. In the primary screening reporter cells for IL-2 activated with PMA (50 ng/ml) and ionomycin (1 μM) were seeded in a 96-well plate and incubated with compounds from the chemical library in a total volume of 100 μL at 37° C. in a humidified atmosphere with 5% CO2 for 18 h. Concentration of compounds was 0.4 μg/ml. The final DMSO concentration was 0.2%, DMSO is not cytotoxic towards EL-4 reporter cells at this concentration. Control samples consisted of cells in medium with 0.2% DMSO with PMA (50 ng/ml) and ionomycin (1 μM). Following incubation cells were analyzed by flow cytometry. Viability was assessed in parallel to the level of EGFP-mediated fluorescence.
Selection of compounds was based on FCC parameters calculated using the following formula:
FCC parameter=relative viability×(relative fluorescence−100)
(§2) Compounds after primary screening were considered to be hits when FCC parameter calculated after primary screening was ≦−5000. After secondary screening area under the curve (A) of FCC parameter versus relative concentration was calculated (maximum concentration used, i.e. 50 μg/ml, was assumed to be 1).

[2] = tested on: reporter cell line for β-actin (EL-4 cells); assay: FCC test, expanded version, β-actin reporter cell line; type: cell-based, mouse; conditions: PMA and ionomycin, 1.56 to 50 μg/ml, 50 μg/ml assumed to be 1
Protocol: as §1
as §2, with “1). […]” for “1).”
(§3) Flavonoids selected after preliminary screening were undergoing FCC testing using 5 reporter cell lines: for β-actin, interleukin-2 (IL-2), interleukin-4 (IL-4), interferon-γ (IFN-γ) and interleukin-10 (IL-10). The tested concentrations were in the range from 1.56 to 50 μg/ml.
(§4) Using flow cytometry mean fluorescence intensity (columns, left Y axis) and cell viability (dots, the right Y-axis) was determined for all the experimental points and normalized relative to the control—cells incubated with medium with PMA and ionomycin. The data is the mean of the three experiments ±SEM. The statistical significance of differences between means were determined: * p<0.05, ** p<0.01, *** p<0.001 versus control. Values above the graph represent the area under the curve showing the relationship of the FCC parameter and the relative compound concentration.

[3] = tested on: reporter cell line for interleukin-2 (EL-4 cells); assay: FCC test, expanded version, IL-2 reporter cell line; type: cell-based, mouse; conditions: IL-2 reporter line; PMA and ionomycin; 1.56 to 50 μg/ml, 50 μg/ml assumed to be 1
Protocol: as §1
as §2, with “1). […]” for “1).”
as §3, §4

[4] = tested on: reporter cell line for interleukin-4 (EL-4 cells); assay: FCC test, expanded version, IL-4 reporter cell line; type: cell-based, mouse; conditions: IL-4 reporter line; PMA and ionomycin; 1.56 to 50 μg/ml, 50 μg/ml assumed to be 1
Protocol: as §1
as §2, with “1). […]” for “1).”
as §3, §4

[5] = tested on: reporter cell line for interferon-γ (EL-4 cells); assay: FCC test, expanded version, IFN-γ reporter cell line; type: cell-based, mouse; conditions: PMA and ionomycin, 1.56 to 50 μg/ml, 50 μg/ml assumed to be 1
Protocol: as §1
as §2, with “1). […]” for “1).”
as §3, §4

[6] = tested on: reporter cell line for interleukin-10 (EL-4 cells); assay: FCC test, expanded version, IL-10 reporter cell line; type: cell-based, mouse; conditions: IL-10 reporter line; PMA and ionomycin; 1.56 to 50 μg/ml, 50 μg/ml assumed to be 1
Protocol: as §1
as §2, with “1). […]” for “1).”
as §3, §4

[7] = tested on: IL-2 production by Jurkat cells; assay: ELISA for IL-2 in Jurkat cells; type: cell-based; conditions: Jurkat cells, PMA and ionomycin, 24 hours; for inhibition at 50 µg/mL / inhibition at 10 µg/mL: Homo sapiens
Protocol: Jurkat cells were seeded in 48-well plates at a concentration of 1 million/ml. Cells activated with PMA (50 ng/ml) and ionomycin (1 uM) or resting were incubated with 50 selected flavonoids in a concentration of 10 μg/ml and 50 μg/ml for 24 hours in a humidified atmosphere with 5% CO 2 at 37° C. As a control, the respective cells in the medium or in a medium with PMA and ionomycin were employed. After incubation, cells were centrifuged (8 minutes, 1300 rpm), and the cell-free supernatants were stored at −20° C. until measurements. IL-2 was assessed using a commercially available ELISA kits according to the manufacturer's instructions. Each experiment was repeated 3 times.
FCC assay and ELISA assay were repeated three times. Relative data were presented as the means±SEM. […] Statistical significance of differences observed in both assays was tested with ANOVA followed by post hoc Dunnett test using GraphPad software (La Jolla, Calif., USA). In statistical analysis non-relative data were used

| Compound | FCC parameter (IL-2 screening) [1] | The area under the curve showing the relationship between the FCC parameter and compound concentration, AKT [2] | The area under the curve showing the relationship between the FCC parameter and compound concentration, IL-2 [3] | The area under the curve showing the relationship between the FCC parameter and compound concentration, IL-4 [4] | The area under the curve showing the relationship between the FCC parameter and compound concentration, IFN [5] | The area under the curve showing the relationship between the FCC parameter and compound concentration, IL-10 [6] | Inhibition of IL-2 production (ELISA) ([7]; 10 μg/ml) | inhibition at 50 µg/mL ([7]; 50 μg/ml) [%] | Inhibition of IL-2 production (ELISA) ([7]; 50 μg/ml) [%] | inhibition at 10 µg/mL ([7]; 10 μg/ml) [%] |
| --- | --- | --- | --- | --- | --- | --- | --- | --- | --- | --- |
| COc1ccc(C2CC(=O)c3cc(O)cc(O)c3O2)cc1 (stereo not drawn) [Compound 1, 6,8-dihydroxy-2-(4-methoxyphenyl)chroman-4-one] | −8723 | −622 | −2178 | −194 | −1865 | −1435 | No | 97 | – | – |
| CC1(C)CC2(CC(c3ccccc3)Oc3cc(O)ccc32)NC(=S)N1 (stereo not drawn) [Compound 2, Spiro[4H-1-benzopyran-4,4′(1′H)-pyrimidine]-2′(3′H)-thione, 2,3,5′,6′-tetrahydro-7-hydroxy-6′,6′-dimethyl-2-phenyl] | −5484 | −1120 | −2394 | 261 | −3977 | −2585 | 35% | – | 91 | – |
| CC(=O)Oc1ccc(/C=C/C(=O)CC2OC(Oc3cc(OC(C)=O)c4c(c3)O[C@@H](c3ccc(OC(C)=O)cc3)CC4=O)C(OC(C)=O)C(OC(C)=O)C2OC(C)=O)cc1 (stereo partly drawn) [Compound 3, 4-(7-{6-[(3E)-4-(4-acetyloxyphenyl)-2-oxobut-3-enyl]-3,4,5-triacetyloxy(2H-3,4,5,6-tetrahydropyran-2-yloxy)}(2R)-5-acetyloxy-4-oxochroman-2-yl)phenyl acetate] | −5095 | 945 | −4581 | −308 | −3801 | −1509 | 64% | – | 68 | – |
| CC(=O)Oc1ccc2c(c1)OC(c1ccccc1)CC21CC(C)(C)NC(=S)N1 (stereo not drawn) [Compound 4, 7-acetoksy-2,3,5′,6′-tetrahydro-6′,6′-dimetylo-2-fenylo-spiro[4H-1-benzopirano-4,4′(1′H)-pirymidyno]-2′(3′H)-tion] | −5692 | −104 | −1081 | 988 | −3521 | −1928 | 27% | – | 44 | – |
| CC(C)=CCc1c(O)cc(O)c2c1OC(c1ccc(O)cc1)CC2=O (stereo not drawn) [Compound 5, 5,7-dihydroxy-2-(4-hydroxyphenyl)-8-(3-methylbut-2-enyl)chroman-4-one] | −5264 | −979 | −4991 | −3324 | −4565 | −3119 | – | 95 | – | 28 |
| O=C1CC(c2ccccc2O)Oc2ccc(O)cc21 (stereo not drawn) [Compound 6, 6-hydroxy-2-(2-hydroxyphenyl)chroman-4-one] | −5169 | 3622 | −2227 | 367 | −2999 | −179 | – | 100 | – | 58 |
| COc1ccc2c(c1)OC(c1cccc(OC)c1OC)CC2=O (stereo not drawn) [Compound 7, 2-(2,3-dimethoxyphenyl)-7-methoxychroman-4-one] | −6178 | −1357 | −4104 | −1865 | −5873 | −2889 | – | 92 | – | 67 |
| COc1cc(OC)c2c(c1)OC(c1ccccc1)CC2=O (stereo not drawn) [Compound 8, 5,7-dimethoxy-2-phenylchroman-4-one] | −5788 | 3973 | −2590 | 2380 | −4396 | −628 | – | 100 | – | 80 |
| COc1cccc2c1C(=O)CC(c1ccccc1)O2 (stereo not drawn) [Compound 9, 5-methoxy-2-phenylchroman-4-one] | −5636 | 3861 | −3872 | 675 | −4745 | −1472 | – | 92 | – | 43 |
